{"source": "patent US5969115A", "about": "“Bisazo dyes and their preparation and use” (Ilford Imaging Switzerland GMBH, priority 1997, dated 1999)", "format_in_all_cases": "physicochemical", "key": {"[1]": {"assay": "Color co-ordinates (L*a*b*) of printed samples", "settings": "for neutral black (color co-ordinates): in words", "method": "(§1) The present invention, as far as it relates to inks, is further illustrated by the following examples using dyes according to our invention described in Tables 1 and 2 and dyes representing the state of the art described in Tables 3 and 4. 100 g of each ink were prepared by heating the necessary amount of dye (3-7 g), glycerol (5 g), tetraethylenglycol (1.1 g). and a biocide solution (Promexal X50, available from Zeneca, Manchester, England) (1.2 g) together with water at a temperature of 50° C. under stirring for one hour. The resulting solution was cooled down to 20° C., pH was adjusted to 7.5 and passed through a Millipore® filter of 0.5 μm pore diameter. The dye quantity was adjusted in a way that the density of the printed images was the same for all dyes.\n(§2) 30 g of gelatin with a high isoelectric point (type St 70,810, available from Deutsche Gelatinefabriken, Eberbach, Germany) were dissolved in 360 ml of deionised water. 1 g of a surfactant (Olin 10G, available from Olin Corporation, Norwalk, USA) were added to this solution. Immediately before coating 6.6 g of a solution of 2-(4-dimethyl-carbamoyl-pyridino)-ethanesulfonate (3%) were added and pH was adjusted to 6.5. 100 g/m^2 of this solution was then coated onto a resin coated paper support using a bar coater. The recording medium prepared in this way was dried for 12 hours.\n(§3) The inks were then jetted onto this recording medium with an HP560 ink jet printer from Hewlett-Packard. The properties of the printed samples were evaluated later on.\nL*a*b*-values were measured on printed samples using a Gretag SPM 100 spectrometer, available from Gretag AG, Regensdorf, Switzerland.\nBlack dyes show a neutral hue if the values of a* and b*out of the L*a*b* color co-ordinates are zero."}, "[2]": {"assay": "Absorption maximum in water", "text": "The absorption maxima and the results of the tests (B) to (D) are listed in Table 6 for the dyes of the invention and in Table 7 for the dyes that are state of the art."}, "[3]": {"assay": "Light fastness of printed samples (density loss after xenon lamp irradiation)", "settings": "for light fastness: printed samples, in words; for Density loss in %: xenon lamp, total illumination 20 kJoule/cm^2", "method": "as §1, §2, §3\nThe printed samples were irradiated in an Atlas Ci35A Weather-O-Meter® with a r 6500 W Xenon lamp until a total illumination of 20 kJoule/cm^2 was reached. The density loss was measured with an X-Rite® densitometer. It is expressed as % loss of initial density."}, "[4]": {"assay": "Dye solubility in deionised water", "settings": "for Solubility: deionised water, stirred 1 hour at 50° C., cooled to 20° C., Table 5; for solubility compared with previously known dyes 24 and 26: in words", "method": "The dye was dispersed in deionised water and this dispersion was stirred for 1 hour at 50° C. Then the mixture was cooled down to 20° C., centrifuged and filtered. Dye solubility was calculated a) from visible spectral data of the filtered solution or b) based on the dried filter residue."}}, "data": [{"smiles": "O=S(=O)(O)CCNc1ccc2cc(S(=O)(=O)O)c(N=Nc3ccc(N=Nc4ccc(CS(=O)(=O)O)cc4)c4ccc(S(=O)(=O)O)cc34)c(O)c2c1", "note": "[Compound 8]", "values": [{"measurement": "L*a*b*-value: L*", "setting": "[1]; Table 6", "result": 17.3}, {"measurement": "L*a*b*-value: a*", "setting": "[1]; Table 6", "result": 4.0}, {"measurement": "L*a*b*-value: b*", "setting": "[1]; Table 6", "result": -6.6}, {"measurement": "neutral black (color co-ordinates)", "setting": "[1]", "result": "neutral blacks"}, {"measurement": "HD max in water", "setting": "[2]; Table 6", "result": 577, "unit": "nm"}, {"measurement": "light fastness", "setting": "[3]", "result": "excellent light fastness"}, {"measurement": "Density loss in %", "setting": "[3]; Table 6", "result": 14, "unit": "%"}, {"measurement": "Solubility", "setting": "[4]", "result": "> 20", "unit": "g per 100 ml"}, {"measurement": "solubility compared with previously known dyes 24 and 26", "setting": "[4]", "result": "considerably higher solubility"}]}, {"smiles": "O=S(=O)(O)CCNc1ccc2cc(S(=O)(=O)O)c(N=Nc3ccc(N=Nc4ccc(S(=O)(=O)O)cc4)c4ccc(S(=O)(=O)O)cc34)c(O)c2c1", "note": "[Compound 3]", "values": [{"measurement": "L*a*b*-value: L*", "setting": "[1]; Table 6", "result": 4.3}, {"measurement": "L*a*b*-value: a*", "setting": "[1]; Table 6", "result": 2.5}, {"measurement": "L*a*b*-value: b*", "setting": "[1]; Table 6", "result": -2.5}, {"measurement": "HD max in water", "setting": "[2]; Table 6", "result": 575, "unit": "nm"}, {"measurement": "Density loss in %", "setting": "[3]; Table 6", "result": 5, "unit": "%"}, {"measurement": "Solubility", "setting": "[4]", "result": "> 20", "unit": "g per 100 ml"}, {"measurement": "solubility compared with previously known dyes 24 and 26", "setting": "[4]", "result": "considerably higher solubility"}]}, {"smiles": "O=S(=O)(O)CCNc1ccc2cc(S(=O)(=O)O)c(N=Nc3ccc(N=Nc4ccc(S(=O)(=O)O)cc4)c4ccc(S(=O)(=O)O)cc34)c(O)c2c1", "note": "[Compound 5]", "values": [{"measurement": "L*a*b*-value: L*", "setting": "[1]; Table 6", "result": 7.3}, {"measurement": "L*a*b*-value: a*", "setting": "[1]; Table 6", "result": 2.0}, {"measurement": "L*a*b*-value: b*", "setting": "[1]; Table 6", "result": -2.4}, {"measurement": "neutral black (color co-ordinates)", "setting": "[1]", "result": "neutral blacks"}, {"measurement": "HD max in water", "setting": "[2]; Table 6", "result": 576, "unit": "nm"}, {"measurement": "light fastness", "setting": "[3]", "result": "excellent light fastness"}, {"measurement": "Density loss in %", "setting": "[3]; Table 6", "result": 6, "unit": "%"}, {"measurement": "Solubility", "setting": "[4]", "result": 16, "unit": "g per 100 ml"}]}, {"smiles": "O=C(O)CCNc1ccc2cc(S(=O)(=O)O)c(N=Nc3ccc(N=Nc4cccc(C(=O)O)c4)c4ccc(S(=O)(=O)O)cc34)c(O)c2c1", "note": "[Compound 26, reference compound]", "values": [{"measurement": "L*a*b*-value: L*", "setting": "[1]; state of the art dyes, Table 7", "result": 14.7}, {"measurement": "L*a*b*-value: a*", "setting": "[1]; state of the art dyes, Table 7", "result": 14.4}, {"measurement": "L*a*b*-value: b*", "setting": "[1]; state of the art dyes, Table 7", "result": -14.6}, {"measurement": "HD max in water", "setting": "[2]; state of the art dyes, Table 7", "result": 568, "unit": "nm"}, {"measurement": "Density loss in %", "setting": "[3]; state of the art dyes, Table 7", "result": 8, "unit": "%"}, {"measurement": "Solubility", "setting": "[4]", "result": 17, "unit": "g per 100 ml"}]}, {"smiles": "O=C(O)c1cc(N=Nc2ccc(N=Nc3c(S(=O)(=O)O)cc4ccc(NCCS(=O)(=O)O)cc4c3O)c3cc(S(=O)(=O)O)ccc23)cc(C(=O)O)c1", "note": "[Compound 16]", "values": [{"measurement": "L*a*b*-value: L*", "setting": "[1]; Table 6", "result": 3.8}, {"measurement": "L*a*b*-value: a*", "setting": "[1]; Table 6", "result": 3.4}, {"measurement": "L*a*b*-value: b*", "setting": "[1]; Table 6", "result": 0.5}, {"measurement": "HD max in water", "setting": "[2]; Table 6", "result": 580, "unit": "nm"}, {"measurement": "Density loss in %", "setting": "[3]; Table 6", "result": 1, "unit": "%"}, {"measurement": "Solubility", "setting": "[4]", "result": "> 20", "unit": "g per 100 ml"}, {"measurement": "solubility compared with previously known dyes 24 and 26", "setting": "[4]", "result": "considerably higher solubility"}]}]}
